# Test results: US11160803B2, “Phthalazinone derivatives” (KUDOS PHARMACEUTICALS LIMITED, priority 2003, dated 2021)
# Legend:
# [1] = system: Brca1 wild type (11CO) ES cells; assay: Clonogenic survival, continuous exposure, Brca1 wild type ES cells; type: cell-based; conditions: matched wild type cells (Brca1), clonogenic assay, continuous exposure (FIG. 1A)
# Method: (§1) To assess the stand alone activity of a PARP inhibitor on Braca 1 and 2 deficient cells the following protocols were used.
# (§2) Compound (4) was dissolved in DMSO at 10 mM and stored at −20° C. in the dark.
# (§3) VC8 cells and the mouse Brca2 BAC complemented derivatives were as described in M. Kraakman-van der Zwet, et al., Mol Cell Biol 22, 669-79 (2002)). ES cells defective in Brca2 function have been described previously (Tutt, et al., EMBO Rep 3, 255-60 (2002)). The construction of ES cells defective in Brca1 will be described elsewhere but have previously been validated (Foray, et al., Embo J, 22, 2860-71 (2003)).
# (§4) For measurement of cellular sensitivity to a PARP inhibitor (compound 4), cell cultures in exponential growth were trypsinised and seeded at various densities in 6-well plates onto Mitomycin C inactivated mouse embryonic fibroblasts and where appropriate treated with the test compound after 18 hours. For continuous exposure, cells were re-fed every 4 days with fresh medium and inhibitor. After 10-14 days, cells were washed with PBS, fixed in methanol and stained with crystal violet. Colonies containing greater than approximately 50 cells were counted. Experiments were performed at least three times in triplicate.
# [2] = system: Chinese hamster ovary cells deficient in Brca2 (VC8); assay: Clonogenic survival, continuous exposure, Brca2 deficient VC8 cells; type: cell-based
# [3] = system: Brca2 deficient (Cre24) ES cells; assay: Clonogenic survival, continuous exposure, Brca2 deficient ES cells; type: cell-based; conditions: ratio of SF50 wild type / Brca2 deficient ES cells
# Method: as §1, §2, §3, §4
# [4] = system: Brca2-complemented derivative (VC8-BAC); assay: Clonogenic survival, continuous exposure, Brca2-complemented VC8-BAC cells; type: cell-based, Chinese hamster; conditions: matched control VC8-BAC, clonogenic assay (FIG. 2)
# [5] = system: Brca1 deficient (Cre10) ES cells; assay: Clonogenic survival, continuous exposure, Brca1 deficient ES cells; type: cell-based
# Method: as §1, §2, §3, §4
# [6] = system: Brca2 wild type (D3) ES cells; assay: Clonogenic survival, continuous exposure, Brca2 wild type ES cells; type: cell-based; conditions: matched wild type cells (Brca2), clonogenic assay, continuous exposure (FIG. 1B)
# Method: as §1, §2, §3, §4
smiles,measurement,setting,value
"O=C(c1cc(Cc2n[nH]c(=O)c3ccccc23)ccc1F)N1CCCNCC1 [compound 4, 4-[3-([1,4]diazepane-1-carbonyl)-4-fluorobenzyl]-2H-phthalazin-1-one]",SF50 (dosage at which 50% of cells survived),[1],7 µM
same,SF50 (dosage at which 50% of cells survived),"[2]; Brca2 deficient VC8 line, clonogenic assay (FIG. 2)",50 nM
same,fold enhanced sensitivity of Brca2 mutant cells compared to wild type cells,[2]; ratio of SF50 VC8-BAC / VC8,600 fold
same,fold enhanced sensitivity of Brca2 mutant cells compared to wild type cells,[3],"1,500 fold"
same,SF50 (dosage at which 50% of cells survived),[4],30 µM
same,SF50 (dosage at which 50% of cells survived),"[5]; cells deficient in Brca1, clonogenic assay, continuous exposure (FIG. 1A)",15 nM
same,fold enhanced sensitivity of Brca1 mutant cells compared to wild type cells,[5]; ratio of SF50 wild type / Brca1 deficient,467 fold
same,SF50 (dosage at which 50% of cells survived),[6],18 µM
